Here are results for 3 molecules from ChEMBL document CHEMBL5696442, “Discovery of type II inhibitors of TGFβ-activated kinase 1 (TAK1) and mitogen-activated protein kinase kinase kinase kinase 2 (MAP4K2)” (J Med Chem, 2015).

Calls of active or inactive are those of the source. No cut-off for these calls is given here.

Assay [1] addresses Casein kinase I isoform epsilon (Homo sapiens) (UniProt P49674). Kind of assay: Inhibition of CK1epsilon Lys2 labeling site in human Huh-7 cell lysate at 1 uM by KiNativ Profiling analysis relative to control. It counts as subcellular.
Assay [2] has as its target Cyclin-dependent kinase 1 (Homo sapiens) (UniProt P06493). In words: Inhibition of CDC2 Lys2 labeling site harbouring DLKPQNLLIDDKGTIK in human A-375 cells at 5 uM by KiNativ Profiling analysis relative to control. It counts as cell-based.
Assay [3] concerns the target Interleukin-1 receptor-associated kinase 3 (Homo sapiens) (UniProt Q9Y616). In words: Inhibition of IRAK3 (unknown origin) at 1 uM by Ambit Kinomescan binding assay relative to control; values are per cent of control.
The target of assay [4] is Eukaryotic translation initiation factor 2-alpha kinase 1 (Homo sapiens) (UniProt Q9BQI3). In words: Inhibition of EIF2AK1 (unknown origin) at 1 uM by Ambit Kinomescan binding assay relative to control; values are per cent of control.
Assay [5] concerns the target Dual specificity testis-specific protein kinase 1 (Homo sapiens) (UniProt Q15569). Kind of assay: Inhibition of TESK1 (unknown origin) at 1 uM by Ambit Kinomescan binding assay relative to control.
The target in assay [6] is Serine/threonine-protein kinase VRK2 (Homo sapiens) (UniProt Q86Y07). Kind of assay: Inhibition of VRK2 (unknown origin) at 1 uM by Ambit Kinomescan binding assay relative to control.
In assay [7] the target is Serine/threonine-protein kinase Nek4 (Homo sapiens) (UniProt P51957). In words: Inhibition of NEK4 Lys2 labeling site in human A-375 cells at 0.5 uM by KiNativ Profiling analysis relative to control. Type of assay: cell-based.
In assay [8] the target is cAMP-dependent protein kinase catalytic subunit PRKX (Homo sapiens) (UniProt P51817). Kind of assay: Inhibition of PRKX (unknown origin) at 1 uM by Ambit Kinomescan binding assay relative to control.
Assay [9] addresses Homeodomain-interacting protein kinase 4 (Homo sapiens) (UniProt Q8NE63). In words: Inhibition of HIPK4 (unknown origin) at 1 uM by Ambit Kinomescan binding assay relative to control; values are per cent of control.
Assay [10] deals with T1, Serine/threonine-protein kinase TBK1 (Homo sapiens) (UniProt Q9UHD2).
T1 sequence (whole entry): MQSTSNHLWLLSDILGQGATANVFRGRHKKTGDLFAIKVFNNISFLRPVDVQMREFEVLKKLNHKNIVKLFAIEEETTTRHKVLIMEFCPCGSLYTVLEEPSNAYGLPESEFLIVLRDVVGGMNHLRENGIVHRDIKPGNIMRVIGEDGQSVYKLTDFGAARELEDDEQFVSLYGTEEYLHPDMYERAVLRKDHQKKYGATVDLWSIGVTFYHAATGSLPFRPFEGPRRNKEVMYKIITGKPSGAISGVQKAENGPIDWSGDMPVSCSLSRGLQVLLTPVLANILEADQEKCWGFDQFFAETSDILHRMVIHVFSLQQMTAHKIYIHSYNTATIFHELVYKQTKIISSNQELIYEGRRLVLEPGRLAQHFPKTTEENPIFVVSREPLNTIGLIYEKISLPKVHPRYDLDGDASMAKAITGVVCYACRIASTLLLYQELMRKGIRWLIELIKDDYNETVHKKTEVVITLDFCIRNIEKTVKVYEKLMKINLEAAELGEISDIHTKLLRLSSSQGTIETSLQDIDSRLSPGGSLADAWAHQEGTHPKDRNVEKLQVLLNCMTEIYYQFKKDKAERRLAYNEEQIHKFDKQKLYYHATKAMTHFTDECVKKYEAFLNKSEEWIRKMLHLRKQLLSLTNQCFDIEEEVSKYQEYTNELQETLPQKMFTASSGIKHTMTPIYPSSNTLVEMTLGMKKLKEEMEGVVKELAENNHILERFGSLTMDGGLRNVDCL
In words: Inhibition of TBK1 Lys2 labeling site in human A-375 cells at 5 uM by KiNativ Profiling analysis relative to control. Type of assay: cell-based.

Assay [11] addresses MAP kinase-interacting serine/threonine-protein kinase 2 (Homo sapiens) (UniProt Q9HBH9). In words: Inhibition of MKNK2 (unknown origin) at 1 uM by Ambit Kinomescan binding assay relative to control; values are per cent of control.
The target of assay [12] is Dual specificity mitogen-activated protein kinase kinase 2 (Homo sapiens) (UniProt P36507). In words: Inhibition of MEK2 (unknown origin) at 1 uM by Ambit Kinomescan binding assay relative to control; values are per cent of control.
Assay [13] has as its target Protein kinase C theta type (Homo sapiens) (UniProt Q04759). Kind of assay: Inhibition of PRKCQ (unknown origin) at 10 uM by Ambit Kinomescan binding assay.
Assay [14] deals with Hepatocyte growth factor receptor (Homo sapiens) (UniProt P08581). In words: Inhibition of MET ACT labeling site in human Huh-7 cells at 1 uM by KiNativ Profiling analysis relative to control. It counts as cell-based.
Assay [15] shares this target. In words: Inhibition of MET ACT labeling site in human A-375 cells at 0.5 uM by KiNativ Profiling analysis relative to control. It counts as cell-based.
Assay [16] has as its target Ribosomal protein S6 kinase alpha-4 (Homo sapiens) (UniProt O75676). Kind of assay: Inhibition of C-terminal RPS6KA4 kinase domain 2 (unknown origin) at 10 uM by Ambit Kinomescan binding assay; values are per cent of control.
The target in assay [17] is Serine/threonine-protein kinase 32B (Homo sapiens) (UniProt Q9NY57). Kind of assay: Inhibition of YANK2 (unknown origin) at 10 uM by Ambit Kinomescan binding assay.
For assay [18], the target named is Mitogen-activated protein kinase kinase kinase kinase 4 (Homo sapiens, UniProt O95819). In words: Inhibition of ZC1/HGK K2 labeling site in human Huh-7 cells at 1 uM by KiNativ Profiling analysis relative to control. It counts as cell-based.
Assay [19] deals with T2, Scaffold protein ILK (Homo sapiens) (UniProt Q13418).
T2 sequence (whole entry): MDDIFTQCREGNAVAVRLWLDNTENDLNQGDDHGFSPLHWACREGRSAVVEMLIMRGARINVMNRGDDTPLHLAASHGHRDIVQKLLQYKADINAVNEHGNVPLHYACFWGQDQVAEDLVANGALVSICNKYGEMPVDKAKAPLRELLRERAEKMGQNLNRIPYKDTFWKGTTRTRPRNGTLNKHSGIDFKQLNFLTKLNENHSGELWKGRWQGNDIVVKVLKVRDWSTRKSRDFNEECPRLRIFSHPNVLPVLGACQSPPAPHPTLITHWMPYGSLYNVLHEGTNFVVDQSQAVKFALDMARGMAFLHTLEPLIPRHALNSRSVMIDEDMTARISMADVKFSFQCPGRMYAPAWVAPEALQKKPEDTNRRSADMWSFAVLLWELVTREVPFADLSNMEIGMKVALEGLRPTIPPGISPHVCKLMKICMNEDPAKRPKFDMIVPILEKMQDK
Kind of assay: Inhibition of ILK K1 labeling site in human Huh-7 cells at 10 uM by KiNativ Profiling analysis relative to control. Type of assay: cell-based.

Assay [20] addresses Tyrosine-protein kinase Mer (Homo sapiens) (UniProt Q12866). Kind of assay: Inhibition of MERTK (unknown origin) at 10 uM by Ambit Kinomescan binding assay.

Chain of Hepatocyte growth factor receptor (Homo sapiens) (P08581 whole entry): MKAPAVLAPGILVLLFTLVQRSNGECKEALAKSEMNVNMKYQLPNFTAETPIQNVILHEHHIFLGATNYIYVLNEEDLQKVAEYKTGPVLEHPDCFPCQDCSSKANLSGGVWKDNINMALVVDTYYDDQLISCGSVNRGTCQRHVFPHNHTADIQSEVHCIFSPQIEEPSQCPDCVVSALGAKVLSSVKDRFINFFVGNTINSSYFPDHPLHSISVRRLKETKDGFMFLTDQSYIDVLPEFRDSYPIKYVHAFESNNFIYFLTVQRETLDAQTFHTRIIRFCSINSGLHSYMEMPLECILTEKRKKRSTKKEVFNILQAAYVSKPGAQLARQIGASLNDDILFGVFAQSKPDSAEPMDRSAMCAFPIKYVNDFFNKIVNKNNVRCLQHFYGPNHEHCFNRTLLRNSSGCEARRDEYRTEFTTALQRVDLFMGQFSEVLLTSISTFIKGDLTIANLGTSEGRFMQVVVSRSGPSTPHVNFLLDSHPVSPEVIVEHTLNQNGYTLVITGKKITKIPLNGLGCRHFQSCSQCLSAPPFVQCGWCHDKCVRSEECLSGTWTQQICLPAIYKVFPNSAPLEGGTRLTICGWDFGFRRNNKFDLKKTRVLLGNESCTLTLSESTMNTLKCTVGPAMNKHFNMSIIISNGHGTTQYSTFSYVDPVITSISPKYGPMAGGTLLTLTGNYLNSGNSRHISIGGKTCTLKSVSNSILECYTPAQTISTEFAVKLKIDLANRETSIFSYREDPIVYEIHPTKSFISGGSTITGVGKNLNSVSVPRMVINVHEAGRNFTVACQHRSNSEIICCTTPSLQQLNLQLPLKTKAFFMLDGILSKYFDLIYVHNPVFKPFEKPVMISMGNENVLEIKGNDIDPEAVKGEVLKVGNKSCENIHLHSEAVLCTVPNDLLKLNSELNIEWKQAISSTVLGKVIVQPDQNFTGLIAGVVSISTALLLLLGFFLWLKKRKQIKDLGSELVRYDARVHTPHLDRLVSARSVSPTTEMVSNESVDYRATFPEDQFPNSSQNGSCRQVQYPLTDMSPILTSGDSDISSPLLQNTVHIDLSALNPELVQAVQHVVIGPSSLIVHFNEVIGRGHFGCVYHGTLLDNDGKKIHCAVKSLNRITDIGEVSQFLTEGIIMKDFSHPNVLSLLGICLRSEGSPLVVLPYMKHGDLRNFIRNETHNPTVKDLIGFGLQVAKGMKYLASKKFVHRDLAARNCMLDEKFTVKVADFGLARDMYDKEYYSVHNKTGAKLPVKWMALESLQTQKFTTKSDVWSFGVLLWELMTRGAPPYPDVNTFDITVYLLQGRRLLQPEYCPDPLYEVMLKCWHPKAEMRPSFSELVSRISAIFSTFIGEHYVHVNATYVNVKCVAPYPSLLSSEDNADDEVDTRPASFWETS
Chain of cAMP-dependent protein kinase catalytic subunit PRKX (Homo sapiens) (P51817 whole entry): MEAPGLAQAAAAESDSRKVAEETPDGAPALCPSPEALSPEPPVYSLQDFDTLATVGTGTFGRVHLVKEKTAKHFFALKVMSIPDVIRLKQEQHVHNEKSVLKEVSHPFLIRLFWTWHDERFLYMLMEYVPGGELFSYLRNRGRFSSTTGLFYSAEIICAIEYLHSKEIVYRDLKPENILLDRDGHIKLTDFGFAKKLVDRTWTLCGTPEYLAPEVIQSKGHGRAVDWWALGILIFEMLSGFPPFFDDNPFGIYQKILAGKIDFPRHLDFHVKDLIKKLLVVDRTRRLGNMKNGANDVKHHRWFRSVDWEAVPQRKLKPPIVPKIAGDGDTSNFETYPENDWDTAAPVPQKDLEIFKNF
Chain of MAP kinase-interacting serine/threonine-protein kinase 2 (Homo sapiens) (Q9HBH9 whole entry, looked up): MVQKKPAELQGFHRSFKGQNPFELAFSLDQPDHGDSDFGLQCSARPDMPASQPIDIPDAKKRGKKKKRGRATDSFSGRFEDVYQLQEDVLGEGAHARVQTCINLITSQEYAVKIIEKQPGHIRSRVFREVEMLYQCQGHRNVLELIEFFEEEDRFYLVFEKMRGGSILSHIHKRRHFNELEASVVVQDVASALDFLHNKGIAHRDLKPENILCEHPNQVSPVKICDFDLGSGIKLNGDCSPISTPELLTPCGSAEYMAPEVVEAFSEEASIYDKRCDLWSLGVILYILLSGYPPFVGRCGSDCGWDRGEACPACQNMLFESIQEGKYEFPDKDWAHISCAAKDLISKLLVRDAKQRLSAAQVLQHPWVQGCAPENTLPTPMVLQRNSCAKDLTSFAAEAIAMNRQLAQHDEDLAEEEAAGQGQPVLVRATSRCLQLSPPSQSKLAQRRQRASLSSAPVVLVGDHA
Chain of Casein kinase I isoform epsilon (Homo sapiens) (P49674 whole entry, looked up, canonical isoform): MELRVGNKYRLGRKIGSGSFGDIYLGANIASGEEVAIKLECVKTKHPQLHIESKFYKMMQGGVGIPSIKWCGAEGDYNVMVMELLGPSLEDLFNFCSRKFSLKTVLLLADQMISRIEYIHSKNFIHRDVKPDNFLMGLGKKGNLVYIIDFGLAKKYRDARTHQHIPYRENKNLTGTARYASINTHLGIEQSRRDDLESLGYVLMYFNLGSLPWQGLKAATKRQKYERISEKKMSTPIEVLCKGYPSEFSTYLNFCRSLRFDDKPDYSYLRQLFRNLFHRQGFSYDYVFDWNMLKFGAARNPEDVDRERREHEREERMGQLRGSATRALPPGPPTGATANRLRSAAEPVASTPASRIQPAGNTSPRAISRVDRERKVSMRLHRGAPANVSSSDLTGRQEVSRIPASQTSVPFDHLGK
Chain of Dual specificity mitogen-activated protein kinase kinase 2 (Homo sapiens) (P36507 whole entry): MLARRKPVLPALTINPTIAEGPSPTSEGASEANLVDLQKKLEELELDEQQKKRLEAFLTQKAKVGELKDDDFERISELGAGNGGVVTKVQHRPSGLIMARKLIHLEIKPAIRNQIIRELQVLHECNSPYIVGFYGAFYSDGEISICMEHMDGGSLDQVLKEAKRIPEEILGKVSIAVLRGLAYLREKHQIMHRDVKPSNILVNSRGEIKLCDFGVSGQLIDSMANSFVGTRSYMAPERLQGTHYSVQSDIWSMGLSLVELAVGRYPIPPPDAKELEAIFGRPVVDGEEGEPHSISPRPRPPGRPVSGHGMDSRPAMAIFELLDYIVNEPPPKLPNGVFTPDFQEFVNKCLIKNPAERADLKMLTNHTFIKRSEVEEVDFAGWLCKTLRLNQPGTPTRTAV
Chain of Serine/threonine-protein kinase Nek4 (Homo sapiens) (P51957 whole entry, looked up): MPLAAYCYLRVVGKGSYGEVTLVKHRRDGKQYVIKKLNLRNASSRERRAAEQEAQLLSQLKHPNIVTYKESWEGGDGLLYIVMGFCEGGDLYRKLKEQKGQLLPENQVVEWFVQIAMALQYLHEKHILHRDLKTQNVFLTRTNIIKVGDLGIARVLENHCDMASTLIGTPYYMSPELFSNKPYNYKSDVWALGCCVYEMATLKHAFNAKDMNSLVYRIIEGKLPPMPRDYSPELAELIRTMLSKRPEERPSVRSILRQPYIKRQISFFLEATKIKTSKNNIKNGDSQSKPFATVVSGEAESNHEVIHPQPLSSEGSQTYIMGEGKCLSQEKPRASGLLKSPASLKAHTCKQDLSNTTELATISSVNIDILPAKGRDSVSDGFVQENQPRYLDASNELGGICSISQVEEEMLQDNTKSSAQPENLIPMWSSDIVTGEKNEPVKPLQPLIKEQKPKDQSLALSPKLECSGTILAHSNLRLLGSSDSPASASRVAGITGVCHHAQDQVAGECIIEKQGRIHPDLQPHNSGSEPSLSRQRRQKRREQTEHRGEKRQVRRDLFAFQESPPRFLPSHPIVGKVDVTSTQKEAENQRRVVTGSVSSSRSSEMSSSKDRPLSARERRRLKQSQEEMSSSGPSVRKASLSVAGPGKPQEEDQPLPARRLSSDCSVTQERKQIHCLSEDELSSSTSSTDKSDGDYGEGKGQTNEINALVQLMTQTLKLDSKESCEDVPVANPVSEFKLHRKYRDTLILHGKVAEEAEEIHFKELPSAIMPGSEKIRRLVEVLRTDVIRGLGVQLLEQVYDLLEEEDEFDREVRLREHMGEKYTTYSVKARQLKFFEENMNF
Chain of Cyclin-dependent kinase 1 (Homo sapiens) (P06493 whole entry, looked up): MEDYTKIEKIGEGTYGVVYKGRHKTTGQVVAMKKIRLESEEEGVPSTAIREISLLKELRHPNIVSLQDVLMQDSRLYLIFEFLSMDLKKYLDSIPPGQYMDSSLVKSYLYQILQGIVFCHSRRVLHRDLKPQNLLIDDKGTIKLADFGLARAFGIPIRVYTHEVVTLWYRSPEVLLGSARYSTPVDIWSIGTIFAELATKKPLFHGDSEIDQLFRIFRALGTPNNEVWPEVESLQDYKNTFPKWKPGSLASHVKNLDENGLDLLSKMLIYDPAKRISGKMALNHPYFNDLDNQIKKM
Chain of Homeodomain-interacting protein kinase 4 (Homo sapiens) (Q8NE63 whole entry): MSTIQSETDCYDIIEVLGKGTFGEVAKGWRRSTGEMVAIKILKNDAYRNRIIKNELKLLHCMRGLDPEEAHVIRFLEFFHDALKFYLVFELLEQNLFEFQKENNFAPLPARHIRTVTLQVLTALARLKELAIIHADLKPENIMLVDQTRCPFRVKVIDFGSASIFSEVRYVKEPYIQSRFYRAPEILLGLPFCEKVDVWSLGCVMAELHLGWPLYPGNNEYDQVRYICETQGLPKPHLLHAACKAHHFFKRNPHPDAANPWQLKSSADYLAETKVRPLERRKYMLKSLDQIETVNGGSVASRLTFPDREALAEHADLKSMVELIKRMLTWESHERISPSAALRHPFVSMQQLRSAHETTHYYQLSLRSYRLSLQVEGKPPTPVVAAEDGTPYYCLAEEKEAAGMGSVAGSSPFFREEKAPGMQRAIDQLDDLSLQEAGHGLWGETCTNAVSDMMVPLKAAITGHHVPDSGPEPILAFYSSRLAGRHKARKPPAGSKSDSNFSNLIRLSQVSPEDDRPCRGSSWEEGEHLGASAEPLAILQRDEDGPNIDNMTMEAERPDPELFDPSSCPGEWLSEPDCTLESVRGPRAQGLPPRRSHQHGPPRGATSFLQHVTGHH

As to `CNc1cc(Oc2cc(C(=O)Nc3cc(N4CCN(C)CC4)cc(C(F)(F)F)c3)ccc2C)ncn1`, the inhibition (as a rule, the drop in the measured response relative to a control, in per cent) in assay [1] turned out to be 0.6%.

`CCN1CCN(Cc2ccc(NC(=O)c3ccc(C)c(/C=C/c4cnc5[nH]ccc5c4OC)c3)cc2C(F)(F)F)CC1`: the inhibition was -6.1% in [2]; 100% in assay [5]; 100% in assay [6]; 8.6% in assay [7]; 57% in assay [8]; 37.6% in assay [10]. In addition, the residual activity in assay [3] came to 76%; in [4] it was 100%; in [9], 16%; in [11] it was 48%; in [12] it was 74%.

Turning to `CCN1CCN(Cc2ccc(NC(=O)c3ccc(C)c(Oc4ccnc5[nH]ccc45)c3)cc2C(F)(F)F)CC1`, the inhibition entry in [13], in [17] and in assay [20] was “inactive” in each case. The inhibition in assay [14] is 15.5%; in [15], 14.4%; in [18], 23%; in assay [19], -5.7%. Besides, in [16], the percent of control is 4.7%.
